In patent publication US11505528B2, “Inhibitors of microbially induced amyloid” (Axial Therapeutics, Inc., priority 2017, dated 2022):
Read-outs that look alike come from different tables or passages of the source.

Experiments:
[1] = target: T1, E. coli CsgA (Escherichia coli, UniProt P28307); test: Thioflavin T cell-free assay of CsgA aggregation; assay type: biochemical
T1 construct: 6xHis (C); made in house; host or cells: E. coli NEB 3016 slyD::kan

[2] = target: T2, human α-synuclein (Homo sapiens, UniProt P37840); test: Thioflavin T cell-free assay of α-synuclein aggregation; assay type: biochemical; conditions: α-synuclein 50 μM, compounds at 20-50 μM, data from 36 hours; for Inhibition of Aggregation, αSyn: ThT fluorescence, negative = potentiation
T2 construct: the full-length gene for untagged human α-synuclein was inserted; made in house; host or cells: E. coli BL21 (DE3)

[3] = read-out: Inhibition of Aggregation, CsgA
[4] = read-out: Inhibition of Aggregation, CsgA (compound activity range)

T1 sequence (P28307 23-151): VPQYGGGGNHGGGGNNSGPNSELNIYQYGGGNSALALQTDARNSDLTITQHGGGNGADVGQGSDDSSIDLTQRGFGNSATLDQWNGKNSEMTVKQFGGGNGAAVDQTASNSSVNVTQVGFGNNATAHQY

## COc1cc(C(=O)Nc2sc3c(c2C(=O)O)CCCC3)cc(OC)c1OC [Compound 17, 2-(3,4,5-trimethoxybenzamido)-4,5,6,7-tetrahydrobenzo[b]thiophene-3-carboxylic acid]
[1]; [3]
  inhibition at 20 µM: 18%
[1]; [4]
  inhibition at 20 µM: 10 to 30%

## COc1cc2[nH]cc(C(=O)Nc3ccc(O)cc3)c(=O)c2c(OC)c1OC [Compound 29, N-(4-hydroxyphenyl)-5,6,7-trimethoxy-4-oxo-1,4-dihydroquinoline-3-carboxamide]
[1]; [3]
  inhibition at 20 µM: 9%
[1]; [4]
  inhibition at 20 µM: -10 to 10%

## O=C(Nc1ccccc1)c1c[nH]c2ccccc2c1=O [Compound 45, 4-oxo-N-phenyl-1,4-dihydroquinoline-3-carboxamide]
[1]; [3]
  inhibition at 20 µM: -18%
[1]; [4]
  inhibition at 20 µM: < -10%

## O=C(Nc1cc(O)c(O)c(O)c1)c1c[nH]c2cc(O)cc(O)c2c1=O [Compound 22, 5,7-dihydroxy-4-oxo-N-(3,4,5-trihydroxyphenyl)-1,4-dihydroquinoline-3-carboxamide]
[1]; [3]
  inhibition at 20 µM: 58%
[1]; [4]
  inhibition at 20 µM: 30 to 60%

## O=C(Nc1sc2c(c1C(=O)Nc1ccccc1)CCCC2)c1cc(O)c(O)c(O)c1 [Compound 8, N-phenyl-2-(3,4,5-trihydroxybenzamido)-4,5,6,7-tetrahydrobenzo[b]thiophene-3-carboxamide]
[2]
  Inhibition of Aggregation, αSyn: 18%
  Inhibition of Aggregation, αSyn (compound activity range): (+) ((+) is between 10% to 30% inhibition)
[1]; [3]
  inhibition at 20 µM: 13%
[1]; [4]
  inhibition at 20 µM: 10 to 30%

## O=C(Nc1ccccc1)c1c[nH]c2cc(O)c(O)c(O)c2c1=O [Compound 33, 5,6,7-trihydroxy-4-oxo-N-phenyl-1,4-dihydroquinoline-3-carboxamide]
[2]
  Inhibition of Aggregation, αSyn: 92%
  Inhibition of Aggregation, αSyn (compound activity range): (+++) ((+++) is greater than 60% inhibition)
[1]; [3]
  inhibition at 20 µM: 59%
[1]; [4]
  inhibition at 20 µM: 30 to 60%

## COc1cc(NC(=O)c2c(NC(=O)c3cc(OC)c(OC)c(OC)c3)sc3c2CCCC3)cc(OC)c1 [Compound 5, N-(3,5-dimethoxyphenyl)-2-(3,4,5-trimethoxybenzamido)-4,5,6,7-tetrahydrobenzo[b]thiophene-3-carboxamide]
[2]
  Inhibition of Aggregation, αSyn: 22%
  Inhibition of Aggregation, αSyn (compound activity range): (+) ((+) is between 10% to 30% inhibition)
[1]; [3]
  inhibition at 20 µM: -4%
[1]; [4]
  inhibition at 20 µM: -10 to 10%

## O=C(Nc1ccccc1O)c1c[nH]c2cc(O)c(O)c(O)c2c1=O [Compound 43, 5,6,7-trihydroxy-N-(2-hydroxyphenyl)-4-oxo-1,4-dihydroquinoline-3-carboxamide]
[2]
  Inhibition of Aggregation, αSyn: 63%
  Inhibition of Aggregation, αSyn (compound activity range): (++) ((++) is between 30% to 60% inhibition)
[1]; [3]
  inhibition at 20 µM: 90%
[1]; [4]
  inhibition at 20 µM: > 60%

## O=C(Nc1cccc(O)c1)c1c[nH]c2ccccc2c1=O [Compound 46, N-(3-hydroxyphenyl)-4-oxo-1,4-dihydroquinoline-3-carboxamide]
[1]; [3]
  inhibition at 20 µM: -7%
[1]; [4]
  inhibition at 20 µM: -10 to 10%

## COc1cc(OC)c2c(=O)c(C(=O)N(C)c3cc(OC)c(OC)c(OC)c3)c[nH]c2c1 [Compound 35, 5,7-dimethoxy-N-methyl-4-oxo-N-(3,4,5-trimethoxyphenyl)-1,4-dihydroquinoline-3-carboxamide]
[1]; [3]
  inhibition at 20 µM: -53%
[1]; [4]
  inhibition at 20 µM: < -10%

## O=C(Nc1cc(O)cc(O)c1)c1c[nH]c2cc(O)cc(O)c2c1=O [Compound 47, N-(3,5-dihydroxyphenyl)-5,7-dihydroxy-4-oxo-1,4-dihydroquinoline-3-carboxamide]
[1]; [3]
  inhibition at 20 µM: 13%
[1]; [4]
  inhibition at 20 µM: 10 to 30%

## COc1cc(C(=O)Nc2sc3c(c2C(N)=O)CCCC3)cc(OC)c1OC [Compound 12, 2-(3,4,5-trimethoxybenzamido)-4,5,6,7-tetrahydrobenzo[b]thiophene-3-carboxamide]
[1]; [3]
  inhibition at 20 µM: -23%
[1]; [4]
  inhibition at 20 µM: < -10%

## COc1cc2[nH]cc(C(=O)Nc3ccccc3)c(=O)c2c(OC)c1OC [Compound 30, 5,6,7-trimethoxy-4-oxo-N-phenyl-1,4-dihydroquinoline-3-carboxamide]
[1]; [3]
  inhibition at 20 µM: -56%
[1]; [4]
  inhibition at 20 µM: < -10%

## COc1cc(OC)c2c(=O)c(C(=O)Nc3ccc(O)c(F)c3)c[nH]c2c1 [Compound 37, N-(3-fluoro-4-hydroxyphenyl)-5,7-dimethoxy-4-oxo-1,4-dihydroquinoline-3-carboxamide]
[1]; [3]
  inhibition at 20 µM: -17%
[1]; [4]
  inhibition at 20 µM: < -10%

## COc1cc(NC(=O)c2c(-c3cc(OC)c(OC)c(OC)c3)[nH]c3cc(OC)c(OC)c(OC)c3c2=O)cc(OC)c1OC [Compound 40, 5,6,7-trimethoxy-4-oxo-N,2-bis(3,4,5-trimethoxyphenyl)-1,4-dihydroquinoline-3-carboxamide]
[2]
  Inhibition of Aggregation, αSyn: −12%
  Inhibition of Aggregation, αSyn (compound activity range): (−−) ((−−) is less than −10% inhibition)
[1]; [3]
  inhibition at 20 µM: 15%
[1]; [4]
  inhibition at 20 µM: 10 to 30%

## NC(=O)c1c(NC(=O)c2cc(O)c(O)c(O)c2)sc2c1CCCC2 [Compound 15, 2-(3,4,5-trihydroxybenzamido)-4,5,6,7-tetrahydrobenzo[b]thiophene-3-carboxamide]
[1]; [3]
  inhibition at 20 µM: 52%
[1]; [4]
  inhibition at 20 µM: 30 to 60%

## COc1cc2[nH]cc(C(=O)Nc3ccc(O)c(F)c3)c(=O)c2c(OC)c1OC [Compound 34, N-(3-fluoro-4-hydroxyphenyl)-5,6,7-trimethoxy-4-oxo-1,4-dihydroquinoline-3-carboxamide]
[1]; [3]
  inhibition at 20 µM: -11%
[1]; [4]
  inhibition at 20 µM: < -10%

## COc1cc(C(=O)Nc2sc3c(c2C(=O)Nc2ccccc2)CCCC3)cc(OC)c1OC [Compound 9, N-phenyl-2-(3,4,5-trimethoxybenzamido)-4,5,6,7-tetrahydrobenzo[b]thiophene-3-carboxamide]
[1]; [3]
  inhibition at 20 µM: -33%
[1]; [4]
  inhibition at 20 µM: < -10%

## O=C(Nc1sc2c(c1C(=O)Nc1cc(O)c(O)c(O)c1)CCCC2)c1cc(O)cc(O)c1 [Compound 4, 2-(3,5-dihydroxybenzamido)-N-(3,4,5-trihydroxyphenyl)-4,5,6,7-tetrahydrobenzo[b]thiophene-3-carboxamide]
[1]; [3]
  inhibition at 20 µM: 43%
[1]; [4]
  inhibition at 20 µM: 30 to 60%

## O=C(Nc1ccc(O)cc1)c1c[nH]c2cc(O)c(O)c(O)c2c1=O [Compound 38, 5,6,7-trihydroxy-N-(4-hydroxyphenyl)-4-oxo-1,4-dihydroquinoline-3-carboxamide]
[2]
  Inhibition of Aggregation, αSyn: 14%
  Inhibition of Aggregation, αSyn (compound activity range): (+) ((+) is between 10% to 30% inhibition)

## COc1cc(-c2[nH]c3cc(OC)c(OC)c(OC)c3c(=O)c2C(=O)O)cc(OC)c1OC [Compound 36, 5,6,7-trimethoxy-4-oxo-2-(3,4,5-trimethoxyphenyl)-1,4-dihydroquinoline-3-carboxylic acid]
[1]; [3]
  inhibition at 20 µM: -47%
[1]; [4]
  inhibition at 20 µM: < -10%

## COc1cc(NC(=O)c2c(NC(=O)c3cc(OC)c(OC)c(OC)c3)sc3c2CCCC3)cc(OC)c1OC [Compound 1, 2-(3,4,5-trimethoxybenzamido)-N-(3,4,5-trimethoxyphenyl)-4,5,6,7-tetrahydrobenzo[b]thiophene-3-carboxamide]
[1]; [3]
  inhibition at 20 µM: 8%
[1]; [4]
  inhibition at 20 µM: -10 to 10%

## COc1cc(C(=O)Nc2sc3c(c2C(=O)N(C)c2cc(OC)c(OC)c(OC)c2)CCCC3)cc(OC)c1OC [Compound 7, N-methyl-2-(3,4,5-trimethoxybenzamido)-N-(3,4,5-trimethoxyphenyl)-4,5,6,7-tetrahydrobenzo[b]thiophene-3-carboxamide]
[1]; [3]
  inhibition at 20 µM: 2%
[1]; [4]
  inhibition at 20 µM: -10 to 10%

## COc1cc(OC)c2c(=O)c(C(=O)Nc3ccccc3O)c[nH]c2c1 [Compound 41, N-(2-hydroxyphenyl)-5,7-dimethoxy-4-oxo-1,4-dihydroquinoline-3-carboxamide]
[2]
  Inhibition of Aggregation, αSyn: 17%
  Inhibition of Aggregation, αSyn (compound activity range): (+) ((+) is between 10% to 30% inhibition)
[1]; [3]
  inhibition at 20 µM: 18%
[1]; [4]
  inhibition at 20 µM: 10 to 30%

## COc1cc(NC(=O)c2c(N(C)C(=O)c3cc(OC)c(OC)c(OC)c3)sc3c2CCCC3)cc(OC)c1OC [Compound 13, 2-(3,4,5-trimethoxy-N-methylbenzamido)-N-(3,4,5-trimethoxyphenyl)-4,5,6,7-tetrahydrobenzo[b]thiophene-3-carboxamide]
[1]; [3]
  inhibition at 20 µM: -16%
[1]; [4]
  inhibition at 20 µM: < -10%

## O=C(Nc1sc2c(c1C(=O)Nc1cc(O)c(O)c(O)c1)CCCC2)c1ccccc1 [Compound 18, 2-benzamido-N-(3,4,5-trihydroxyphenyl)-4,5,6,7-tetrahydrobenzo[b]thiophene-3-carboxamide]
[1]; [3]
  inhibition at 20 µM: 16%
[1]; [4]
  inhibition at 20 µM: 10 to 30%

## Nc1sc2c(c1C(=O)Nc1cc(O)c(O)c(O)c1)CCCC2 [Compound 16, 2-amino-N-(3,4,5-trihydroxyphenyl)-4,5,6,7-tetrahydrobenzo[b]thiophene-3-carboxamide]
[1]; [3]
  inhibition at 20 µM: 31%
[1]; [4]
  inhibition at 20 µM: 30 to 60%

## COc1cc2[nH]cc(C(=O)Nc3ccccc3O)c(=O)c2c(OC)c1OC [Compound 39, N-(2-hydroxyphenyl)-5,6,7-trimethoxy-4-oxo-1,4-dihydroquinoline-3-carboxamide]
[1]; [3]
  inhibition at 20 µM: -4%
[1]; [4]
  inhibition at 20 µM: -10 to 10%

## COc1cc(NC(=O)c2c(NC(=O)c3ccccc3)sc3c2CCCC3)cc(OC)c1OC [Compound 11, 2-benzamido-N-(3,4,5-trimethoxyphenyl)-4,5,6,7-tetrahydrobenzo[b]thiophene-3-carboxamide]
[1]; [3]
  inhibition at 20 µM: -24%
[1]; [4]
  inhibition at 20 µM: < -10%

## COc1cc(OC)cc(C(=O)Nc2sc3c(c2C(=O)Nc2cc(OC)c(OC)c(OC)c2)CCCC3)c1 [Compound 3, 2-(3,5-dimethoxybenzamido)-N-(3,4,5-trimethoxyphenyl)-4,5,6,7-tetrahydrobenzo[b]thiophene-3-carboxamide]
[1]; [3]
  inhibition at 20 µM: -11%
[1]; [4]
  inhibition at 20 µM: < -10%

## COc1cc(OC)c2c(=O)c(C(=O)Nc3ccc(O)cc3)c[nH]c2c1 [Compound 31, N-(4-hydroxyphenyl)-5,7-dimethoxy-4-oxo-1,4-dihydroquinoline-3-carboxamide]
[1]; [3]
  inhibition at 20 µM: -20%
[1]; [4]
  inhibition at 20 µM: < -10%
